In patent publication US5023244A, “Anti-dementia agents” (Hoechst Japan Limited, priority 1986, dated 1991) one finds LD50 and Percent memory retention data, which are given here for five compounds.

What is called LD50 is the dose expected to kill half of the subjects tested. Read a low LD50 as a more toxic substance.

Data set [1] can be described thus: Acute toxicity (LD50) in mice by intraperitoneal administration. To be noted: mouse, in vivo, ip.
Data set [2] can be described thus: Passive avoidance task, memory retention test after cycloheximide-induced amnesia (retrieval process). The format is in vivo, ICR male mice. The settings on record: cycloheximide 120 mg/kg i.p., test 24 h after training. The text has this:
The passive avoidance task and the induction of amnesia by cycloheximide are experimental methods usually employed (Naoki Yamazaki et al.: Jap. J. Psychopharmacol., 3, 127 (1983)). The detailed method is described below. The apparatus used for the experiment was a plastic box 24 cm in height, 20 cm in width and 23 cm in length with a floor of iron grids at the corner of which was placed a platform 8 cm in length, 8 cm in width and 1.5 cm in height. When a mouse placed in the box was subjected to electric stimulus with a current of 0.3 mA for a period of approximately 3 seconds, the mouse escaped onto the platform. After subsequent non-stimulus period of 8 seconds, the mouse was subjected to the electric stimulus for an additional period of approximately 5 seconds. By this method, the mouse acquired memory of aversion that the electric stimulus would be delivered whenever the animal got off the platform, thus the passive avoidance task was established. The learning was judged to be established if the mouse placed on the platform under non-stimulus condition immediately after the training remained on it for 30 seconds or longer.
The test to observe whether or not a mouse retained memory of aversion was performed 24 hours after the training and percent memory retention was calculated according to the following equation: [formula]
In order to induce deficits of memory, the animal was intraperitoneally administered 15 min prior to the training with a physiological saline solution of cycloheximide at a dose of 120 mg/kg., and then subjected to the electric stimulus for training.
A memory retention test was performed 24 hours after training. An intraperitoneal administration was done 75 min. prior to the test respectively for L-N^6 -phenylisopropyladenosine (Compound A) and N^6 -cyclohexyladenosine (Compound C), 60 min. prior to the test respectively for 2-chloroadenosine(Compound B) and adenosine-5'-(N-cyclopropyl)carboxamide (Compound E) and 45 min. prior to the test for adenosine-5'-(N-ethyl)carboxamide (Compound D).

The mark [3] stands for this setting: 100 μg/kg i.p., 75 min prior to test.

Take `C[C@H](Cc1ccccc1)Nc1ncnc2c1ncn2[C@@H]1O[C@H](CO)[C@@H](O)[C@H]1O` [Compound A, L-N^6 -phenylisopropyladenosine]: the LD50 in data set [1] amounted to 31 mg/kg. Also, the Percent memory retention in data set [2] (50 μg/kg i.p., 75 min prior to test) was 36.8%; in data set [2] (setting [3]), 55.0%.

Compound `Nc1nc(Cl)nc2c1ncn2[C@@H]1O[C@H](CO)[C@@H](O)[C@H]1O` [Compound B, 2-chloroadenosine] returned a 50% lethal dose (LD50) in data set [1] of 45 mg/kg. Also, the Percent memory retention in data set [2] (500 μg/kg i.p., 60 min prior to test) amounted to 35.0%; in data set [2] (1000 μg/kg i.p., 60 min prior to test), 52.4%.

As for `OC[C@H]1O[C@@H](n2cnc3c(NC4CCCCC4)ncnc32)[C@H](O)[C@@H]1O` [Compound C, N^6 -cyclohexyladenosine], the Percent memory retention in data set [2] (10 μg/kg i.p., 75 min prior to test) is listed as 14.8%; in data set [2] (setting [3]) it was 20.8%; in data set [2] (300 μg/kg i.p., 75 min prior to test), 66.7%.

For `CCNC(=O)[C@H]1O[C@@H](n2cnc3c(N)ncnc32)[C@H](O)[C@@H]1O` [Compound D, adenosine-5'-(N-ethyl)carboxamide], the Percent memory retention is reported as 39.3% in data set [2] (3 μg/kg i.p., 45 min prior to test); 42.3% in data set [2] (7 μg/kg i.p., 45 min prior to test); 51.4% in data set [2] (10 μg/kg i.p., 45 min prior to test).

As for `Nc1ncnc2c1ncn2[C@@H]1O[C@H](C(=O)NC2CC2)[C@@H](O)[C@H]1O` [Compound E, adenosine-5'-(N-cyclopropyl)carboxamide], the Percent memory retention in data set [2] (1 μg/kg i.p., 60 min prior to test) is reported as 25.0%; in data set [2] (3 μg/kg i.p., 60 min prior to test), 40.0%; in data set [2] (10 μg/kg i.p., 60 min prior to test), 62.1%; in data set [2] (30 μg/kg i.p., 60 min prior to test), 66.7%.
